Test results reported in ChEMBL document CHEMBL4422668 (Bioorg Med Chem Lett, 2019).
Calls of active or inactive are those of the source. No cut-off for these calls is given here. Non-standard residues stand in square brackets, D forms with d. Residues, ends and D or L forms follow the SMILES beside them. NMeR = CN[C@@H](CCCNC(=N)N)C(=O)O; NMeF = CN[C@@H](Cc1ccccc1)C(=O)O; NMeT = CN[C@H](C(=O)O)[C@@H](C)O; NMeN = CN[C@@H](CC(N)=O)C(=O)O; NMeL = CN[C@@H](CC(C)C)C(=O)O; NMeS = CN[C@@H](CO)C(=O)O

Assays:
Streptococcus mutans [1] = assay: Agonist activity at Streptococcus mutans SAB249 ComD receptor assessed as increase in cipB expression at 10 uM after 1 hr by beta-galactosidase reporter gene assay relative to control
Streptococcus mutans [2] = assay: Antagonist activity at Streptococcus mutans SAB249 ComD receptor assessed as inhibition of 18-CSP-induced cipB expression at 10 uM after 1 hr by beta-galactosidase reporter gene assay
[3] = Agonist activity at Streptococcus mutans SAB249 ComD receptor assessed as increase in cipB expression after 1 hr by beta-galactosidase reporter gene assay
Streptococcus mutans [4] = assay: Activation of comD quorum sensing system in Streptococcus mutans SMCC3 harboring comC deletion mutant assessed as reduction in inhibition zone of Streptococcus anginosus ATCC 33397 at 5 to 100 nM preincubated for 4 hrs followed by Streptococcus anginosus ATCC 33397 addition and measured after 24 hrs
Streptococcus mutans [5] = assay: (§1) Activation of comD quorum sensing system in Streptococcus mutans SMCC3 harboring comC deletion mutant assessed as reduction in inhibition zone of Streptococcus anginosus ATCC 33397 at 0.25 nM preincubated for 4 hrs followed by Streptococcus anginosus ATCC 33397 addition and measured after 24 hrs
Streptococcus mutans [6] = assay: as §1, with “0.25 to 1” for “0.25”

Row | Compound | Activity (Streptococcus mutans [1]) [%] | inhibition (Streptococcus mutans [2]) | also measured
1 | CC(C)C[C@H](NC(=O)[C@H](CCCNC(=N)N)NC(=O)[C@H](Cc1ccccc1)NC(=O)[C@H](Cc1ccccc1)NC(=O)[C@@H](NC(=O)[C@H](CO)NC(=O)[C@H](CC(C)C)NC(=O)[C@@H](N)CO)[C@@H](C)O)C(=O)N[C@@H](Cc1ccccc1)C(=O)N(C)[C@@H](CC(N)=O)C(=O)N[C@@H](CCCNC(=N)N)C(=O)N[C@@H](CO)C(=O)N[C@@H](Cc1ccccc1)C(=O)N[C@H](C(=O)N[C@@H](CCC(N)=O)C(=O)N[C@@H](C)C(=O)O)[C@@H](C)O (H-SLSTFFRLF[NMeN]RSFTQA-OH) | 11 | inactive | –
2 | CC(C)C[C@H](NC(=O)[C@@H](N)CO)C(=O)N[C@@H](CO)C(=O)N[C@H](C(=O)N[C@@H](Cc1ccccc1)C(=O)N[C@@H](Cc1ccccc1)C(=O)N(C)[C@@H](CCCNC(=N)N)C(=O)N[C@@H](CC(C)C)C(=O)N[C@@H](Cc1ccccc1)C(=O)N[C@@H](CC(N)=O)C(=O)N[C@@H](CCCNC(=N)N)C(=O)N[C@@H](CO)C(=O)N[C@@H](Cc1ccccc1)C(=O)N[C@H](C(=O)N[C@@H](CCC(N)=O)C(=O)N[C@@H](C)C(=O)O)[C@@H](C)O)[C@@H](C)O (H-SLSTFF[NMeR]LFNRSFTQA-OH) | 45 | inactive | –
3 | H-GSLSTFFRLFNRSFTQA-OH | – | – | EC50 [3]: 4.8 nM
4 | H-GSLSAFFRAFNAAFTAA-OH | – | – | inhibition (Streptococcus mutans [4]): Active; inhibition (Streptococcus mutans [5]): Active
5 | CC(C)C[C@H](NC(=O)[C@H](CCCNC(=N)N)NC(=O)[C@H](Cc1ccccc1)NC(=O)[C@H](Cc1ccccc1)NC(=O)[C@@H](NC(=O)[C@H](CO)NC(=O)[C@H](CC(C)C)NC(=O)[C@@H](N)CO)[C@@H](C)O)C(=O)N[C@@H](Cc1ccccc1)C(=O)N[C@@H](CC(N)=O)C(=O)N[C@@H](CCCNC(=N)N)C(=O)N[C@@H](CO)C(=O)N[C@@H](Cc1ccccc1)C(=O)N(C)[C@H](C(=O)N[C@@H](CCC(N)=O)C(=O)N[C@@H](C)C(=O)O)[C@@H](C)O (H-SLSTFFRLFNRSF[NMeT]QA-OH) | 38 | inactive | –
6 | H-SGSLSTFFRLFNRSFTQA-OH | 100 | – | EC50 [3]: 6.2 nM; inhibition (Streptococcus mutans [6]): inactive
7 | CC(C)C[C@H](NC(=O)[C@H](CCCNC(=N)N)NC(=O)[C@H](Cc1ccccc1)NC(=O)[C@H](Cc1ccccc1)NC(=O)[C@H]([C@@H](C)O)N(C)C(=O)[C@H](CO)NC(=O)[C@H](CC(C)C)NC(=O)[C@@H](N)CO)C(=O)N[C@@H](Cc1ccccc1)C(=O)N[C@@H](CC(N)=O)C(=O)N[C@@H](CCCNC(=N)N)C(=O)N[C@@H](CO)C(=O)N[C@@H](Cc1ccccc1)C(=O)N[C@H](C(=O)N[C@@H](CCC(N)=O)C(=O)N[C@@H](C)C(=O)O)[C@@H](C)O (H-SLS[NMeT]FFRLFNRSFTQA-OH) | – | – | EC50 [3]: > 1000 nM
8 | CC(C)C[C@H](NC(=O)[C@H](CCCNC(=N)N)NC(=O)[C@H](Cc1ccccc1)NC(=O)[C@H](Cc1ccccc1)NC(=O)[C@@H](NC(=O)[C@H](CO)NC(=O)[C@H](CC(C)C)NC(=O)[C@@H](N)CO)[C@@H](C)O)C(=O)N[C@@H](Cc1ccccc1)C(=O)N[C@@H](CC(N)=O)C(=O)N(C)[C@@H](CCCNC(=N)N)C(=O)N[C@@H](CO)C(=O)N[C@@H](Cc1ccccc1)C(=O)N[C@H](C(=O)N[C@@H](CCC(N)=O)C(=O)N[C@@H](C)C(=O)O)[C@@H](C)O (H-SLSTFFRLFN[NMeR]SFTQA-OH) | 5 | inactive | inhibition (Streptococcus mutans [4]): Active
9 | CC(C)C[C@H](NC(=O)[C@@H](N)CO)C(=O)N[C@@H](CO)C(=O)N[C@H](C(=O)N[C@@H](Cc1ccccc1)C(=O)N[C@@H](Cc1ccccc1)C(=O)N[C@@H](CCCNC(=N)N)C(=O)N(C)[C@@H](CC(C)C)C(=O)N[C@@H](Cc1ccccc1)C(=O)N[C@@H](CC(N)=O)C(=O)N[C@@H](CCCNC(=N)N)C(=O)N[C@@H](CO)C(=O)N[C@@H](Cc1ccccc1)C(=O)N[C@H](C(=O)N[C@@H](CCC(N)=O)C(=O)N[C@@H](C)C(=O)O)[C@@H](C)O)[C@@H](C)O (H-SLSTFFR[NMeL]FNRSFTQA-OH) | 29 | inactive | –
10 | CC(C)C[C@H](NC(=O)[C@H](CCCNC(=N)N)NC(=O)[C@H](Cc1ccccc1)NC(=O)[C@H](Cc1ccccc1)NC(=O)[C@@H](NC(=O)[C@H](CO)NC(=O)[C@H](CC(C)C)NC(=O)[C@@H](N)CO)[C@@H](C)O)C(=O)N[C@@H](Cc1ccccc1)C(=O)N[C@@H](CC(N)=O)C(=O)N[C@@H](CCCNC(=N)N)C(=O)N[C@@H](CO)C(=O)N(C)[C@@H](Cc1ccccc1)C(=O)N[C@H](C(=O)N[C@@H](CCC(N)=O)C(=O)N[C@@H](C)C(=O)O)[C@@H](C)O (H-SLSTFFRLFNRS[NMeF]TQA-OH) | 17 | inactive | –
11 | H-GSLSAFFRAFNAAFTQA-OH | – | – | inhibition (Streptococcus mutans [4]): Active; inhibition (Streptococcus mutans [5]): Active
12 | CC(C)C[C@H](NC(=O)[C@@H](N)CO)C(=O)N[C@@H](CO)C(=O)N[C@H](C(=O)N[C@@H](Cc1ccccc1)C(=O)N[C@@H](Cc1ccccc1)C(=O)N[C@@H](CCCNC(=N)N)C(=O)N[C@@H](CC(C)C)C(=O)N(C)[C@@H](Cc1ccccc1)C(=O)N[C@@H](CC(N)=O)C(=O)N[C@@H](CCCNC(=N)N)C(=O)N[C@@H](CO)C(=O)N[C@@H](Cc1ccccc1)C(=O)N[C@H](C(=O)N[C@@H](CCC(N)=O)C(=O)N[C@@H](C)C(=O)O)[C@@H](C)O)[C@@H](C)O (H-SLSTFFRL[NMeF]NRSFTQA-OH) | 0 | inactive | inhibition (Streptococcus mutans [4]): Active
13 | H-SLSTFFRLFNRSFTQA-OH | 100 | – | EC50 [3]: 7.9 nM
14 | CC(C)C[C@H](NC(=O)[C@H](CCCNC(=N)N)NC(=O)[C@H](Cc1ccccc1)NC(=O)[C@H](Cc1ccccc1)NC(=O)[C@@H](NC(=O)[C@H](CO)NC(=O)[C@H](CC(C)C)NC(=O)[C@@H](N)CO)[C@@H](C)O)C(=O)N[C@@H](Cc1ccccc1)C(=O)N[C@@H](CC(N)=O)C(=O)N[C@@H](CCCNC(=N)N)C(=O)N(C)[C@@H](CO)C(=O)N[C@@H](Cc1ccccc1)C(=O)N[C@H](C(=O)N[C@@H](CCC(N)=O)C(=O)N[C@@H](C)C(=O)O)[C@@H](C)O (H-SLSTFFRLFNR[NMeS]FTQA-OH) | 12 | inactive | –
